How the values were obtained:
Assay in all cases: relative viability (nuclei count vs DMSO), 5 days (fraction); higher = more cells survive
[1] = compound: CC1=CSC(=NC2CCCCC2)N1/N=C/C3=C(C(=C(C=C3)O)O)O [MIM1]
In short: (§1)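 Nuclei counted with MetaXpress define viability as the ratio of treated to vehicle wells, given as a median across plates. The lung cancer cell lines were in 1536-well plates, pinned with five √10-spaced library-drug doses and imaged at 4× after 5 days and Hoechst staining. Plates passed with control CV below 25% and at least one doubling.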

[2] = compound: CCNC(=O)c1noc(-c2cc(C(C)C)c(O)cc2O)c1-c1ccc(CN2CCOCC2)cc1 [Luminespib]
In short: as §1

[3] = compound: Nc1cccc2c1CN(C1CCC(=O)NC1=O)C2=O [Lenalidomide]
In short: as §1

[4] = compound: Cc1cn(-c2cc(NC(=O)c3ccc(C)c(Nc4nccc(-c5cccnc5)n4)c3)cc(C(F)(F)F)c2)cn1 [Nilotinib]
In short: as §1

[5] = compound: CN1CCN(CCOc2cc(OC3CCOCC3)c3c(Nc4c(Cl)ccc5c4OCO5)ncnc3c2)CC1 [Saracatinib]
In short: as §1

Row | Cell Line | relative viability ([1]; 0.2 µM) | relative viability ([1]; 0.6325 µM) | relative viability ([1]; 2 µM) | relative viability ([1]; 6.325 µM) | relative viability ([1]; 20 µM) | relative viability ([2]; 0.002 µM) | relative viability ([2]; 0.006325 µM) | relative viability ([2]; 0.01 µM, anchor plate) | relative viability ([2]; 0.02 µM) | relative viability ([2]; 0.06325 µM) | relative viability ([2]; 0.2 µM) | relative viability ([3]; 0.253 µM) | relative viability ([3]; 0.8 µM) | relative viability ([3]; 2.53 µM) | relative viability ([3]; 8 µM) | relative viability ([4]; 0.001 µM) | relative viability ([4]; 0.003162 µM) | relative viability ([4]; 0.01 µM) | relative viability ([4]; 0.03162 µM) | relative viability ([4]; 0.1 µM) | relative viability ([5]; 0.02 µM) | relative viability ([5]; 0.2 µM) | relative viability ([5]; 0.6325 µM) | relative viability ([5]; 2 µM)
1 | A-427 | 1.05 | 0.746 | 0.973 | 0.783 | 0.218 | 1.06 | 0.906 | 1.03 | 0.793 | 0.395 | 0.244 | 1.04 | 0.979 | 1.15 | 0.918 | 0.955 | 1.06 | 1.08 | 0.871 | 0.182 | 1.03 | 0.904 | 0.935 | 0.924
2 | HOP-62 | 1.02 | 0.942 | 0.782 | 0.74 | 0.204 | 1.05 | 0.969 | 0.912 | 1.01 | 0.659 | 0.249 | 0.943 | 0.963 | 1.05 | 0.93 | 0.953 | 0.958 | 0.948 | 0.698 | 0.462 | 1.02 | 0.968 | 1.19 | 1.14
3 | A549 | 0.967 | 0.933 | 0.946 | 0.782 | 0.333 | 1.04 | 0.923 |  | 0.432 | 0.085 | 0.0435 | 0.986 | 0.97 | 1.13 | 0.954 | 0.948 | 1.21 | 1.1 | 0.739 | 0.665 | 1.04 | 0.81 | 1.09 | 0.898
4 | NCI-H1993 | 0.929 | 0.944 | 0.907 | 0.678 | 0.561 | 0.995 | 0.898 | 0.875 | 0.584 | 0.565 | 0.415 | 0.941 | 0.784 | 1.05 | 0.642 | 0.912 | 0.95 | 0.899 | 0.901 | 0.613 | 0.951 | 0.8 | 0.457 | 0.648
5 | NCI-H2023 | 0.896 | 0.954 | 0.847 | 0.43 | 0.0909 | 0.903 | 0.999 | 0.769 | 0.5 | 0.062 | 0.058 | 0.928 | 1.04 | 1.13 | 0.968 | 0.916 | 0.9 | 1.31 | 0.83 | 0.537 | 1.04 | 0.663 | 0.905 | 0.821
6 | LXF-289 | 1.04 | 0.741 | 1.04 | 0.737 | 0.503 | 0.974 | 0.979 | 0.681 | 1.09 | 0.85 | 0.195 | 0.981 | 1.03 | 1.11 | 1.07 | 0.937 | 1.19 | 1.15 | 0.96 | 0.576 | 0.997 | 0.944 | 1.02 | 1.01
7 | NCI-H596 | 1.11 | 1.19 | 0.88 | 0.939 | 0.685 | 1.06 | 0.901 | 1.09 | 0.684 | 0.919 | 0.921 | 0.906 | 0.704 | 1.09 | 0.723 | 0.939 | 0.982 | 1.05 | 0.771 | 0.848 | 1.12 | 0.817 | 0.906 | 0.815
8 | SW 1573 | 1.1 | 0.966 | 0.976 | 0.763 | 0.488 | 1.04 | 0.976 | 0.217 | 0.595 | 0.108 | 0.107 | 0.914 | 1.01 | 1.08 | 0.925 | 0.906 | 1.2 | 1.12 | 0.737 | 0.66 | 0.931 | 0.785 | 0.877 | 0.729
9 | NCI-H1944 | 0.982 | 0.864 | 0.63 | 0.568 | 0.477 | 0.936 | 0.954 | 0.749 | 0.595 | 0.721 | 0.333 | 0.989 | 0.743 | 0.973 | 0.713 | 1 | 1.11 | 1.21 | 0.924 | 0.988 | 0.996 |  | 0.915 | 0.555
10 | NCI-H1734 | 1.02 | 0.871 | 0.953 | 0.476 | 0.182 | 0.999 | 0.902 | 0.198 | 0.634 | 0.159 | 0.15 | 1.01 | 1.07 | 1.09 | 0.798 | 0.918 | 1.14 | 1.21 | 0.687 | 0.402 | 1.06 |  | 0.86 | 0.783
11 | NCI-H1563 | 1.09 | 1.02 | 0.993 | 0.903 | 0.542 | 0.984 | 0.985 | 0.508 | 0.794 | 0.503 | 0.49 | 0.932 | 1.01 | 1.11 | 0.846 | 0.956 | 1.03 | 0.971 | 0.869 | 1.02 | 1.04 | 0.894 | 0.804 | 0.728
12 | NCI-H2405 | 1.02 | 1.08 | 1.05 | 0.742 | 0.573 | 1.07 | 0.837 | 0.686 | 0.831 | 0.274 | 0.212 | 0.969 | 0.909 | 1.01 | 0.831 | 0.994 | 0.975 | 0.966 | 0.821 | 0.551 | 0.985 | 0.861 | 0.775 | 0.52
13 | NCI-H1793 | 0.874 |  | 0.838 | 0.809 | 0.858 | 0.775 | 0.84 | 0.192 | 0.248 | 0.137 | 0.15 | 0.962 |  | 1.08 | 0.37 | 0.91 | 1.22 | 1.28 | 0.623 | 0.204 | 0.909 | 0.674 | 1.01 | 0.666
14 | NCI-H322M | 0.964 | 0.895 | 0.906 | 0.826 | 0.522 | 0.921 | 0.883 | 0.918 | 0.764 | 0.426 | 0.318 | 0.97 | 0.953 | 1.02 | 0.918 | 1.03 | 0.962 |  | 1.06 | 1.05 | 0.969 | 0.886 | 0.696 | 0.365

— the supplement of paper PMC10307832
